Experimental data published in patent publication US6699862B1, “Indolyl-2-phenyl bisamidines useful as antiproliferative agents” (Pfizer Inc., priority 1999, dated 2004).

Row | melting point [°C] | Compound
1 | > 250 | COC(=O)CCNCCc1c(-c2ccc(C(=N)N)cc2)[nH]c2cc(C(=N)N)ccc12.Cl.Cl
2 | > 250 | Cl.Cl.N=C(N)c1ccc(-c2[nH]c3cc(C(=N)N)ccc3c2CC(=O)O)cc1
3 | > 250 | Cl.Cl.N#CCCOC(=O)Cc1c(-c2ccc(C(=N)N)cc2)[nH]c2cc(C(=N)N)ccc12
4 | > 260 | CC(C(=O)O)c1c(-c2ccc(C(=N)N)cc2)[nH]c2cc(C(=N)N)ccc12.Cl.Cl (centres unmarked)
5 | > 250 | COC(=O)C(CO)NCCc1c(-c2ccc(C(=N)N)cc2)[nH]c2cc(C(=N)N)ccc12.Cl.Cl (centres unmarked)
6 | > 250 | Cl.Cl.N=C(N)c1ccc(-c2[nH]c3cc(C(=N)N)ccc3c2NC(=O)CCC(=O)O)cc1
7 | > 250 | CCOC(=O)CC(C)OC(=O)Cc1c(-c2ccc(C(=N)N)cc2)[nH]c2cc(C(=N)N)ccc12.Cl.Cl (centres unmarked)
8 | > 270 | CCCCOC(=O)Cc1c(-c2ccc(C(=N)N)cc2)[nH]c2cc(C(=N)N)ccc12.Cl.Cl
9 | > 270 | CCCOC(=O)Cc1c(-c2ccc(C(=N)N)cc2)[nH]c2cc(C(=N)N)ccc12.Cl.Cl
10 | > 250 | COC(=O)CNCCc1c(-c2ccc(C(=N)N)cc2)[nH]c2cc(C(=N)N)ccc12.Cl.Cl
11 | > 250 | COCCOC(=O)Cc1c(-c2ccc(C(=N)N)cc2)[nH]c2cc(C(=N)N)ccc12.Cl.Cl
12 | > 250 | CCOC(=O)CNCCc1c(-c2ccc(C(=N)N)cc2)[nH]c2cc(C(=N)N)ccc12.Cl.Cl
13 | > 250 | Cl.Cl.N=C(N)c1ccc(-c2[nH]c3cc(C(=N)N)ccc3c2CC(=O)OCCO)cc1
14 | > 250 | COC(=O)C=CCc1c(-c2ccc(C(=N)N)cc2)[nH]c2cc(C(=N)N)ccc12.Cl.Cl
15 | > 250 | Cl.Cl.N=C(N)c1ccc(-c2[nH]c3cc(C(=N)N)ccc3c2CC(=O)OCCCCCO)cc1
16 | > 250 | COC(=O)CC(NCCc1c(-c2ccc(C(=N)N)cc2)[nH]c2cc(C(=N)N)ccc12)C(=O)OC.Cl.Cl (centres unmarked)
17 | > 250 | Cl.Cl.N=C(N)c1ccc(-c2[nH]c3cc(C(=N)N)ccc3c2CC(=O)OCC(O)CO)cc1 (centres unmarked)
18 | > 250 | COC(=O)C(C)NCCc1c(-c2ccc(C(=N)N)cc2)[nH]c2cc(C(=N)N)ccc12.Cl.Cl (centres unmarked)
19 | > 250 | Cl.Cl.N=C(N)c1ccc(-c2[nH]c3cc(C(=N)N)ccc3c2CCNCC(=O)O)cc1
20 | > 250 | Cl.Cl.N=C(N)c1ccc(-c2[nH]c3cc(C(=N)N)ccc3c2CC(O)CO)cc1 (centres unmarked)
21 | > 250 | Cl.Cl.N=C(N)c1ccc(-c2[nH]c3cc(C(=N)N)ccc3c2CC(=O)OCCOCCO)cc1
22 | > 250 | C=CCOC(=O)Cc1c(-c2ccc(C(=N)N)cc2)[nH]c2cc(C(=N)N)ccc12.Cl.Cl
23 | > 250 | COC(=O)C(NCCc1c(-c2ccc(C(=N)N)cc2)[nH]c2cc(C(=N)N)ccc12)C(C)C.Cl.Cl (centres unmarked)
24 | > 250 | CCSCCOC(=O)Cc1c(-c2ccc(C(=N)N)cc2)[nH]c2cc(C(=N)N)ccc12.Cl.Cl

The remaining lines, values behind:

Row | Compound | melting point [°C]
25 | COC(=O)C(CCCN)NC(=O)Cc1c(-c2ccc(C(=N)N)cc2)[nH]c2cc(C(=N)N)ccc12.Cl.Cl (centres unmarked) | > 250
26 | CCOC(=O)Cc1c(-c2ccc(C3=NCCN3)cc2)[nH]c2cc(C3=NCCN3)ccc12.Cl.Cl | > 300
27 | Cl.Cl.O=CCc1c(-c2ccc(C3=NCCN3)cc2)[nH]c2cc(C3=NCCN3)ccc12 | > 300
28 | Cl.Cl.N=C(N)c1ccc(-c2[nH]c3cc(C(=N)N)ccc3c2CC(=O)NCC(=O)NC(CCC(=O)OCc2ccccc2)C(=O)OCc2ccccc2)cc1 (centres unmarked) | 207 to 212
29 | COC(=O)c1ccc(Cc2c(-c3ccc(C(=N)N)cc3)[nH]c3cc(C(=N)N)ccc23)cc1.Cl.Cl | > 250
30 | COC(=O)Cc1c(-c2ccc(C(=N)N)cc2O)[nH]c2cc(C(=N)N)ccc12.Cl.Cl | > 250
31 | COCCOCCOC(=O)Cc1c(-c2ccc(C(=N)N)cc2)[nH]c2cc(C(=N)N)ccc12.Cl.Cl | > 250
32 | CNC(=N)c1ccc(-c2cc3ccc(C(=N)NC)cc3[nH]2)cc1.Cl.Cl | 282
33 | COC(=O)c1cc(Cl)ccc1Cc1c(-c2ccc(C(=N)N)cc2)[nH]c2cc(C(=N)N)ccc12.Cl.Cl | > 250
34 | CC(C)OC(=O)C(C)Oc1cc(C(=N)N)ccc1-c1cc2ccc(C(=N)N)cc2[nH]1.Cl.Cl (centres unmarked) | 240
35 | Cl.Cl.N=C(N)c1ccc(-c2[nH]c3cc(C(=N)N)ccc3c2CC(=O)OCCc2cccs2)cc1 | > 250
36 | Cl.Cl.N=C(N)c1ccc(-c2[nH]c3cc(C(=N)N)ccc3c2CC(=O)OCC2CCCCO2)cc1 (centres unmarked) | > 250
37 | Cl.Cl.N=C(N)c1ccc(-c2[nH]c3cc(C(=N)N)ccc3c2CC(=O)OCCOCc2ccccc2)cc1 | > 250
38 | COC(=O)C(Cc1ccccc1)NCCc1c(-c2ccc(C(=N)N)cc2)[nH]c2cc(C(=N)N)ccc12.Cl.Cl (centres unmarked) | > 250
39 | COC(=O)c1cccc(Cc2c(-c3ccc(C(=N)N)cc3)[nH]c3cc(C(=N)N)ccc23)c1.Cl.Cl | > 250
40 | Cl.Cl.Fc1cc2cc(-c3ccc(C4=NCCN4)cc3)[nH]c2cc1C1=NCCN1 | > 250
41 | COC(=O)C=Cc1ccc(Cc2c(-c3ccc(C(=N)N)cc3)[nH]c3cc(C(=N)N)ccc23)cc1.Cl.Cl | > 250
42 | Cl.Cl.N=C(N)c1ccc(-c2[nH]c3cc(C(=N)N)ccc3c2CC(=O)OCc2ccccc2)cc1 | > 250
43 | CCCCS(=O)(=O)CCOC(=O)Cc1c(-c2ccc(C(=N)N)cc2)[nH]c2cc(C(=N)N)ccc12.Cl.Cl | > 250
44 | COC(=O)C(CCCCN)NC(=O)Cc1c(-c2ccc(C(=N)N)cc2)[nH]c2cc(C(=N)N)ccc12.Cl.Cl (centres unmarked) | > 260
45 | Cl.Cl.N=C(N)c1ccc(-c2cc3ccc(C(=N)N)cc3[nH]2)c(O)c1 | > 300
46 | COc1cc(C(=N)N)ccc1-c1cc2ccc(C(=N)N)cc2[nH]1.Cl.Cl | > 250
47 | Cl.Cl.N=C(N)c1ccc(-c2[nH]c3cc(C(=N)N)ccc3c2Cc2cccc(OCC(N)=O)c2)cc1 | > 250
48 | COC(=O)C(CCCNC(=O)OCc1ccccc1)NC(=O)Cc1c(-c2ccc(C(=N)N)cc2)[nH]c2cc(C(=N)N)ccc12.Cl.Cl (centres unmarked) | 230 to 235
49 | Cl.Cl.N=C(N)c1ccc(-c2cc3ccc(C(=N)N)cc3[nH]2)c(OCC(O)CO)c1 (centres unmarked) | > 320
50 | Cl.Cl.O=C(O)Cc1c(-c2ccc(C3=NCCN3)cc2)[nH]c2cc(C3=NCCN3)ccc12 | > 300
